The values that follow come from ChEMBL document CHEMBL1201862, “PubChem BioAssay data set” (2004).

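Each compound was tested at five concentrations against cells in 96-well plates for 48 hours. GI50 marks 50% less growth.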 Activity calls are given as the source filed them. Rule as the data show it: active = GI50 up to about 1.1 µM and inactive = higher.

Assay in all cases: inhibition of tumour cell growth, NCI panel, 48 h
Test [1] concerns A549.
Test [2] concerns RPMI-8226.
Test [3] concerns HOP-92.
Test [4] has as its system SF-268.
Test [5] has as its system SK-MEL-28.
In test [6] the test system is IGROV-1.
The test system of test [7] is HL-60.
Test [8] has as its system SK-MEL-5.
In test [9] the test system is HOP-62.
Test [10] deals with KM-20L2.
Test [11] relates to LOX IMVI.
Test [12] relates to ACHN.
For test [13], the system named is HT-29.
Test [14] deals with M14.
Test [15] has as its system NCI-H23.
The test system of test [16] is NCI-H522.
The subject of test [17] is TK-10.

Consider `COc1cc2c(c(OC)c1OC)-c1ccc(SC)c(=O)cc1C(CC(=O)Oc1cccc(C#N)c1)C2` (stereo unspecified), for which the GI50 in [1] is 0.516 µM (active); in test [2] it was 0.583 µM (active); in test [3] it was 2.31 µM (inactive); in [4] it was 0.512 µM (active); in [5], 0.724 µM (active); in test [6] it was 2.06 µM (inactive). For the same compound, the GI50 in test [7] was 0.254 µM (active); in [8] it was 0.313 µM (active); in test [9], 0.638 µM (active); in test [10], 0.208 µM (active); in test [11], 0.484 µM (active); in test [12], 0.593 µM (active). Besides, the GI50 was 0.276 µM (active) in test [13], 0.298 µM (active) in test [14], 0.454 µM (active) in test [15] and 0.187 µM (active) in [16].
With `O=C1OC(O)C(Oc2c(Cl)cccc2Cl)=C1Cl` (stereo unspecified), the GI50 in [1] was 17.2 µM (inactive); in [2] it was 18.1 µM (inactive); in test [3], 18 µM (inactive); in test [4], 16 µM (inactive); in test [5], 20.2 µM (inactive); in test [6], 17.2 µM (inactive). For the same compound, the GI50 is 20 µM (inactive) in test [7]; 14.2 µM (inactive) in test [8]; 17.7 µM (inactive) in test [9]; 17.8 µM (inactive) in test [10]; 17.9 µM (inactive) in test [11]; 17.2 µM (inactive) in test [12]. Also, the GI50 in [17] was 23.6 µM (inactive); in test [13], 18.4 µM (inactive); in [14], 17 µM (inactive); in [15], 17.7 µM (inactive); in [16], 12.5 µM (inactive).
Turning to `CC1(C)CC(=O)C(CC2C(=O)c3ccccc3C2=O)C(=O)C1`, the GI50 in [1], in [3], in test [4], in test [5], in test [6] and in [7] was > 100 µM (inactive) in each case. For the same compound, the GI50 in [8], in test [9], in test [10], in [11], in test [12] and in test [17] was > 100 µM (inactive) in each case. Further, the GI50 in test [13], in test [14], in test [15] and in [16] was > 100 µM (inactive) throughout.
Consider `Cc1cc(NS(=O)(=O)c2ccc(NC(=O)c3ccc(Cl)c4c(Nc5ccc(S(N)(=O)=O)cc5)c5ccccc5nc34)cc2)no1`, for which the GI50 in test [1] is 66.5 µM (inactive); in test [3], 19.7 µM (inactive); in test [4] it was 12.9 µM (inactive); in test [5] it was 20.3 µM (inactive); in test [6], 21.2 µM (inactive); in test [7], 13.3 µM (inactive). For the same compound, the GI50 is 18.2 µM (inactive) in test [8]; 21.2 µM (inactive) in test [9]; 24.5 µM (inactive) in test [10]; 14.6 µM (inactive) in test [11]; 29.1 µM (inactive) in test [12]; 27 µM (inactive) in [17]. The GI50 in test [13] was 22.2 µM (inactive); in test [14], 26.9 µM (inactive); in test [15] it was 23.4 µM (inactive); in [16], 11 µM (inactive).
Regarding `CCOC(=O)CNC1C(NC(C)=O)C(OC)OC2COC(c3ccccc3)OC21` (stereo unspecified), the GI50 in [1], in [2], in [3], in [4], in [5] and in test [6] was > 100 µM (inactive) throughout. The GI50 in test [7], in [8], in test [10], in test [11], in test [12] and in [17] was > 100 µM (inactive) each time. Besides, the GI50 in test [13], in test [14], in [15] and in [16] was > 100 µM (inactive) throughout.
As for `OCCCCOC(c1ccccc1)(c1ccccc1)c1ccccc1`, the GI50 in [1], in [2], in [3], in [4], in [5] and in test [6] was > 100 µM (inactive) each time. Also, the GI50 in [7], in test [8], in [9], in test [10], in test [11] and in test [12] was > 100 µM (inactive) each time. Besides, the GI50 in test [17], in [13], in test [14], in test [15] and in [16] was > 100 µM (inactive) throughout.
Consider `C=CCNC1=C(C(=O)OCC)C(=O)CO1`, for which the GI50 in test [1], in [2], in test [3], in test [4], in test [5] and in test [6] was > 100 µM (inactive) throughout. Also, the GI50 in test [7], in test [8], in test [10], in [11], in test [12] and in test [17] was > 100 µM (inactive) each time. Moreover, the GI50 in test [13], in test [14], in test [15] and in [16] was > 100 µM (inactive) each time.
Take `CC(C(=O)c1ccccc1)C1(O)C(=O)Nc2ccccc21` (stereo unspecified): the GI50 in [1], in [2], in test [3], in test [4], in [5] and in [6] was > 100 µM (inactive) each time. Besides, the GI50 in [8], in test [9], in [10], in test [11], in test [12] and in [17] was > 100 µM (inactive) throughout. In addition, the GI50 in test [13], in test [14], in [15] and in [16] was > 100 µM (inactive) throughout.
Consider `C=CCNC(=S)N1CC(C)C(=O)Nc2cc(Cl)ccc21` (stereo unspecified), for which the GI50 in [1], in test [2], in test [3], in test [4], in [5] and in test [6] was > 100 µM (inactive) each time. For the same compound, the GI50 in [7], in test [8], in [9], in test [10], in [12] and in test [17] was > 100 µM (inactive) each time. Moreover, the GI50 in test [13], in test [14], in test [15] and in [16] was > 100 µM (inactive) each time.
Turning to `c1ccc2[nH]c(-c3nc4ccccc4o3)nc2c1`, the GI50 in [1] is > 100 µM (inactive); in test [2], 81.3 µM (inactive); in test [3], > 100 µM (inactive); in [4] it was > 100 µM (inactive); in [5], > 100 µM (inactive); in test [6] it was 46.5 µM (inactive). The GI50 is 17.6 µM (inactive) in test [7]; 62.8 µM (inactive) in test [8]; > 100 µM (inactive) in [9]; > 100 µM (inactive) in test [10]; 66.1 µM (inactive) in test [11]; > 100 µM (inactive) in [12]. For the same compound, the GI50 was 45.1 µM (inactive) in test [17]; > 100 µM (inactive) in test [13]; > 100 µM (inactive) in test [14]; > 100 µM (inactive) in test [15]; 35.1 µM (inactive) in test [16].
For `Cc1c(/C=N/NC(=O)c2ccccc2)c(=O)n(-c2ccccc2)n1C`, the GI50 in test [1], in test [2], in test [3], in test [4], in test [5] and in test [6] was > 100 µM (inactive) throughout. Besides, the GI50 in test [7], in test [9], in test [10], in test [11], in test [12] and in test [17] was > 100 µM (inactive) each time. Also, the GI50 in test [13], in test [14], in test [15] and in [16] was > 100 µM (inactive) each time.
As for `CCOC(=O)/C(C#N)=C/c1[nH]c(C(=O)OCc2ccccc2)c(C)c1C`, the GI50 in test [1] is > 100 µM (inactive); in test [2] it was > 100 µM (inactive); in test [3], 78.9 µM (inactive); in [4] it was > 100 µM (inactive); in test [5] it was > 100 µM (inactive); in [6], > 100 µM (inactive). In addition, the GI50 in test [7] is > 100 µM (inactive); in test [8], 30.3 µM (inactive); in test [9] it was > 100 µM (inactive); in test [10] it was > 100 µM (inactive); in [11], > 100 µM (inactive); in [12] it was > 100 µM (inactive). Besides, the GI50 in test [17], in test [13], in test [14], in [15] and in [16] was > 100 µM (inactive) throughout.
